By inhibition is commonly meant the change of the read-out against control, counted positive when it falls. Higher therefore signals a response far below the control. The pIC50 is the negative decadic logarithm of the IC50, by convention in mol/L. Low readings indicate a high IC50, high ones a low IC50. By solubility is commonly meant the dissolved amount per volume that the medium holds. Higher therefore signals a readily soluble substance. A word on the pKd: it is the negative decadic logarithm of the Kd, by convention in mol/L.

In brackets after ≈: the same amount, converted by molar mass. Activity calls are given as the source filed them. The rule behind the calls is not given here. Some results are limits rather than exact numbers.

In series [1] the test system is rhinovirus A2. Put plainly: Inhibition of Human rhinovirus 2 purified 3C protease at 100 uM preincubated for 30 mins measured after 1 hrs by FRET assay.
The nature of series [2]: Inhibition of Human rhinovirus 2 purified 3C protease preincubated for 30 mins measured after 1 hrs by FRET assay. Further details: species or system rhinovirus A2.
The nature of series [3]: Solubility of the compound. Type of series: physicochemical.
Series [4] is described as follows: Binding affinity to Human rhinovirus 2 purified 15N-labeled 3C protease after 50 mins by NMR assay. Also noted: species or system rhinovirus A2.
Series [5] deals with rhinovirus A2. Put plainly: Binding affinity to Human rhinovirus 2 purified 15N-labeled 3C protease at 500 uM after 50 mins by NMR assay.

Take `O=Cc1ccc2[nH]c(-c3cccnc3)cc(=O)c2c1`: the inhibition in the series with rhinovirus A2 [1] is more than 95%. Besides, the pIC50 in series [2] is recorded as 6.

Turning to `O=c1cc(-c2cccnc2)[nH]c2cc(Cc3ccccc3)ccc12`, the inhibition in the series with rhinovirus A2 [1] is 100%. This compound also gave a solubility in series [3] of 1 µM (≈ 0.312 µg/mL). The compound also yielded a pIC50 in series [2] of 5.

`CCOC(=O)/C=C/c1ccc2[nH]c(-c3cccnc3)cc(=O)c2c1` had an inhibition in the series on rhinovirus A2 [1] of more than 90%. The same compound yielded a negative logarithm of the IC50 (pIC50) in series [2] of 5.3.

`CNC(=O)Cc1ccc2c(=O)cc(-c3cccnc3)[nH]c2c1` came in with an inhibition in the series on rhinovirus A2 [1] of 45%.

In turn, `Nc1cc(-c2ccccc2)nc2ccccc12` displayed a pKd in series [4] of 3.

In turn, `Cc1cc2[nH]c(-c3ccccc3)cc(=O)n2n1` yielded an inhibition in the series on rhinovirus A2 [1] of 43%. Moreover, the solubility in series [3] was more than 900 µM.

For `COc1ccc2c(=O)cc(-c3cccnc3)[nH]c2c1`, the inhibition in the series on rhinovirus A2 [1] is less than 10%.

Take `O=c1cc(-c2cccnc2)[nH]c2cc(C(O)c3ccccc3)ccc12` (racemic): the inhibition with rhinovirus A2 [1] worked out at 80%. The compound further showed a pIC50 in series [2] of 4.7.

`Cc1ccc2c(=O)cc(-c3cccnc3)[nH]c2c1`: in the series on rhinovirus A2 [1], the inhibition stood at 40%.

In the series with rhinovirus A2 [1], `CNC(=O)c1ccc2c(=O)cc(-c3cccnc3)[nH]c2c1` showed an inhibition of 40%.

With `N#Cc1ccc2[nH]c(-c3cccnc3)cc(=O)c2c1`, the inhibition with rhinovirus A2 [1] is 50%. This compound displayed a pIC50 in series [2] of 4.

In series [4], `c1ccc(-c2ccc3ccccc3n2)cc1` [2-PHENYLQUINOLINE] yielded a pKd of less than 3.

The compound `Cn1c(-c2ccccc2)cc(=O)c2ccccc21` yielded a pKd in series [4] of 3.

With `COc1cc(-c2ccccc2)nc2ccccc12`, the pKd in series [4] is given as less than 3.

`CC(=O)c1ccc2[nH]c(-c3cccnc3)cc(=O)c2c1` showed an inhibition in the series with rhinovirus A2 [1] of 25%.

`O=C(O)/C=C/c1ccc2[nH]c(-c3cccnc3)cc(=O)c2c1` registered an inhibition in the series on rhinovirus A2 [1] of 70%. The pIC50 in series [2] is recorded as 4.2.

With `Oc1cc(-c2ccccc2)nc2ccccc12`, the pKd in series [4] was 3.7. Also, in series [3], the concentration in solution (solubility) was 100 µM (≈ 22.1 µg/mL).

`O=c1cc(-c2ccccc2)oc2ccccc12` [FLAVONE] came in with a pKd in series [4] of 3.

On to `O=c1cc(-c2cccnc2)[nH]c2ccccc12`, for which the inhibition with rhinovirus A2 [1] stood at 35%. Besides, the pKd in series [4] was 3.5. The compound also registered a solubility in series [3] of more than 1300 µM.

In turn, `CCOC(=O)CCc1ccc2[nH]c(-c3cccnc3)cc(=O)c2c1` returned an inhibition with rhinovirus A2 [1] of 0%. The outcome in the series with rhinovirus A2 [5] was inactive.

For the origin of these results see ChEMBL document CHEMBL1641450, “Non-covalent inhibitors of rhinovirus 3C protease” (Bioorg Med Chem Lett, 2011).
